Experimental data taken from patent US20040058957A1, “Benzothiophene derivatives and herbicidal compositions containing the same” (priority 2000, published 2004).

What was measured:
Scirpus juncoides [1] = test: Submersion test, treatment 3 days after transplantation: herbicidal effect; assay type: in vivo; conditions: rated 30 days after application
Procedure: (§1) A mixture consisting of 57 parts by weight of talc and 40 parts by weight of bentonite as carrier and 3 parts by weight of sodium alkylbenzenesulfonate as surfactant was pulverized and mixed uniformly to obtain a carrier for wettable powder. Each herbicidal composition was prepared by uniformly pulverizing and mixing 90 parts by weight of the carrier for wettable powder and 10 parts by weight of the benzothiophene derivative produced in each example.
(§2) Seeds of Scirpus juncoides were sowed onto paddy field soil in a Wagner pot of 1/2000 are. Then, rice seedlings of 2.5 leaf stage were transplanted in the soil. Water was pored into the pot so as to submerge the soil at a depth of 3 cm. The pot was placed in a greenhouse maintained at 20 to 25° C. for vegetation. After 3 days from transplantation of the rice seedlings, a predetermined amount of the herbicidal composition prepared in the step [1] was applied to the pot. After 30 days from the application of the herbicidal composition, the herbicidal effect and injury to the paddy rice were determined.
(§3) The herbicidal effect and the injury to crops in the above tests (1) and (2) were evaluated based on the following ratings.
(§4) The degree of weed control (%) was calculated from the weights of the above-ground parts of fresh weeds in the treated area and the untreated area using the following equation:
(§5) Degree of weed control (%)=[1−(weight of weeds in treated area)/(weight of weeds in untreated area)]×100
(§6) The herbicidal effect was determined according to the following ratings: […]

paddy rice = test: Submersion test, treatment 3 days after transplantation: injury to paddy rice; assay type: in vivo; set-up: key: 0: No injury; 1: Substantially no injury; 2: Slight injury; 3: Some injury; 4: Remarkable injury; 5: Almost all crops dead; conditions: rated 30 days after application
Procedure: A mixture consisting of 57 parts by weight of talc and 40 parts by weight of bentonite as carrier and 3 parts by weight of sodium alkylbenzenesulfonate as surfactant was pulverized and mixed uniformly to obtain a carrier for wettable powder. […] Then, rice seedlings of 2.5 leaf stage were transplanted in the soil. Water was pored into the pot so as to submerge the soil at a depth of 3 cm. The pot was placed in a greenhouse maintained at 20 to 25° C. for vegetation. […] After 30 days from the application of the herbicidal composition, the herbicidal effect and injury to the paddy rice were determined. […] The injury to crops was evaluated according to the following ratings: [table]

Scirpus juncoides [2] = test: Submersion test, treatment 10 days after transplantation: herbicidal effect; assay type: in vivo; conditions: rated 30 days after application
Procedure: as §1
as §2, with “vegetation. After 10 days from” for “vegetation. After 3 days from”
as §3, §4, §5, §6

SMILES | Herbicidal effect Scirpus juncoides (Scirpus juncoides [1]; application rate 100 g/ha) | Herbicidal effect Scirpus juncoides (Scirpus juncoides [1]; application rate 200 g/ha) | Injury paddy rice (paddy rice; application rate 100 g/ha) | Injury paddy rice (paddy rice; application rate 200 g/ha) | Herbicidal effect Scirpus juncoides (Scirpus juncoides [2]; application rate 100 g/ha) | Herbicidal effect Scirpus juncoides (Scirpus juncoides [2]; application rate 200 g/ha) | melting point [°C]
CSC1Cc2c(ccc(C(=O)C3C(=O)CCCC3=O)c2C)S1(=O)=O (centres unmarked) [Compound No. 10, 4-methyl-2-methylthio-5-(1,3-dioxocyclohex-2-yl)carbonyl-2,3-dihydrobenzothiophene 1,1-dioxide] | 5 (90% or higher (almost completely dead)) | 5 (90% or higher (almost completely dead)) | 0 | 0 | 5 (90% or higher (almost completely dead)) | 5 (90% or higher (almost completely dead)) | 192.7 to 193.2
CSC1Cc2c(ccc(C(=O)C3C(=O)CCCC3=O)c2C(F)(F)F)S1(=O)=O (centres unmarked) [Compound No. 11, 2-methylthio-4-trifluoromethyl-5-(1,3-dioxocyclohex-2-yl)carbonyl-2,3-dihydrobenzothiophene 1,1-dioxide] | 5 (90% or higher (almost completely dead)) | 5 (90% or higher (almost completely dead)) | 0 | 0 | 5 (90% or higher (almost completely dead)) | 5 (90% or higher (almost completely dead)) | 206.1 to 211.6
COC(=O)C(C(=O)OC)C1=C(C(=O)c2ccc3c(c2Cl)CC(SC)S3(=O)=O)C(=O)CCC1 (centres unmarked) [Compound No. 40, 4-chloro-2-methylthio-5-[3-(bis-methoxycarbonyl)methyl-1-oxo-2-cyclohexen-2-yl]carbonyl-2,3-dihydrobenzothiophene 1,1-dioxide] | 4 (70% or higher but less than 90%) | 5 (90% or higher (almost completely dead)) | 0 | 0 | 4 (70% or higher but less than 90%) | 5 (90% or higher (almost completely dead)) | 150.3 to 150.5
CSC1Cc2c(Cl)c(C(=O)C3C(=O)CCCC3=O)cc(C)c2S1(=O)=O (centres unmarked) [Compound No. 43, 4-chloro-7-methyl-2-methylthio-5-(1,3-dioxocyclohex-2-yl)carbonyl-2,3-dihydrobenzothiophene 1,1-dioxide] | 5 (90% or higher (almost completely dead)) | 5 (90% or higher (almost completely dead)) | 0 | 0 | 5 (90% or higher (almost completely dead)) | 5 (90% or higher (almost completely dead)) | 195.5 to 197
CCSC1Cc2c(Cl)c(C(=O)C3C(=O)CCCC3=O)cc(C)c2S1(=O)=O (centres unmarked) [Compound No. 44, 4-chloro-7-methyl-2-ethylthio-5-(1,3-dioxocyclohex-2-yl)carbonyl-2,3-dihydrobenzothiophene 1,1-dioxide] | 5 (90% or higher (almost completely dead)) | 5 (90% or higher (almost completely dead)) | 0 | 0 | 5 (90% or higher (almost completely dead)) | 5 (90% or higher (almost completely dead)) | 143.2 to 154.8
